Patent publication EP2462919A2, “Synergistic active agent combination for protecting the skin from IR radiation” (priority 2010, dated 2012)

Experiments:
Type in all cases: cell-based
MMP1 / TIMP-1 = experiment: MMP-1 / TIMP-1 expression ratio (collagen build-up/degradation balance) in fibroblasts after substance treatment and infrared irradiation; settings: Monolayer-Fibroblasten, mit Infrarot A bestrahlt, irradiated-only control 1,2
From the text: (§1) 1. In vitro Assays hinsichtlich der Expression typischer Altersmarker in kultivierten Fibroblasten nach Substanzgabe und Infrarotbestrahlung
[…] Im Folgenden wurde die Genexpression der zwei Hautalterungsmarker Kollagenase MMP-1, das hinsichtlich der Hautalterung wichtigste Kollagen abbauende Enzym, und des spezifischen Inhibitors der Kollagenase MMP-1, TIMP-1 (tissue inhibitor of metalloproteinase 1), untersucht. Die Genexpressionswerte wurden im Folgenden auf die Werte der jeweiligen unbehandelten Kontrolle relativiert. Als Kontrollen wurden Fibroblasten analysiert, die ausschließlich mit Infrarot bestrahlt wurden.
Entscheidend für die Balance des Auf- und Abbaus von Kollagen in der Dermis ist das Verhältnis zwischen MMP-1 und TIMP-1. Ist dieses Verhältnis größer als der Vergleichswert, so kann von einem vermehrten Abbau durch die Kollagenase ausgegangen werden, ist das Verhältnis kleiner, so wird der Abbau vermehrt verhindert und neues Kollagen kann synthetisiert werden.

Kollagenase MMP-1 = experiment: Gene expression of ageing marker MMP-1 in cultured monolayer fibroblasts after substance treatment and infrared irradiation; settings: for Expression der Kollagenase MMP-1 (result in words): Fibroblasten, Infrarot-Strahlen 760-1400 nm, after treatment
From the text: as §1
(§2) Methode: Monolayer-Fibroblasten wurden 24 Stunden vor und 24 Stunden nach Infrarot-Bestrahlung mit Lipochroman (Dimethylmethoxy Chromanol, 0,005 Gew.-%), Taurin (2-Aminoethansulfonsäure 0,005 Gew.-%) und Kombinationen beider Substanzen behandelt. Im Folgenden wurde die Genexpression der zwei Hautalterungsmarker Kollagenase MMP-1, das hinsichtlich der Hautalterung wichtigste Kollagen abbauende Enzym, und des spezifischen Inhibitors der Kollagenase MMP-1, TIMP-1 (tissue inhibitor of metalloproteinase 1), untersucht. Die Genexpressionswerte wurden im Folgenden auf die Werte der jeweiligen unbehandelten Kontrolle relativiert. Als Kontrollen wurden Fibroblasten analysiert, die ausschließlich mit Infrarot bestrahlt wurden.

[1] = tested on: TIMP-1 (tissue inhibitor of metalloproteinase 1); experiment: Gene expression of ageing marker TIMP-1 in cultured monolayer fibroblasts after substance treatment and infrared irradiation; settings: for Expression von TIMP-1 (result in words): Fibroblasten, Bestrahlung mit Infrarot-Strahlen, after treatment
From the text: as §1, §2

| SMILES | MMP1 / TIMP-1 Ratio (MMP1 / TIMP-1; 0,005 % Lipochroman-6) | fold induction at 0.005 % (Kollagenase MMP-1; Fibroblast, light or radiation study, Monolayer-Fibroblasten, mit Infrarot A bestrahlt, 0,005 % Lipochroman-6, treated 24 h before and 24 h after irradiation, read-out: MMP-1 Regulierung mRNA (Gene Expression versus Sham control)) | Expression der Kollagenase MMP-1 (result in words) (Kollagenase MMP-1) | fold induction at 0.005 % ([1]; Fibroblast, light or radiation study, Monolayer-Fibroblasten, mit Infrarot A bestrahlt, 0,005 % Lipochroman-6, treated 24 h before and 24 h after irradiation, read-out: TIMP-1 Regulierung mRNA (Gene Expression versus Sham control)) | Expression von TIMP-1 (result in words) [1] | MMP1 / TIMP-1 Ratio (MMP1 / TIMP-1; 0,05 % Taurin) | fold induction at 0.05 % (Kollagenase MMP-1; Fibroblast, light or radiation study, Monolayer-Fibroblasten, mit Infrarot A bestrahlt, 0,05 % Taurin, treated 24 h before and 24 h after irradiation, read-out: MMP-1 Regulierung mRNA (Gene Expression versus Sham control)) | fold induction at 0.05 % ([1]; Fibroblast, light or radiation study, Monolayer-Fibroblasten, mit Infrarot A bestrahlt, 0,05 % Taurin, treated 24 h before and 24 h after irradiation, read-out: TIMP-1 Regulierung mRNA (Gene Expression versus Sham control)) |
| --- | --- | --- | --- | --- | --- | --- | --- | --- |
| COc1cc2c(cc1O)CCC(C)(C)O2 [Lipochroman-6, 3,4-Dihydro-7-methoxy-2,2-dimethyl-2H-2 1-benzopyran-6-ol] | 2,7 | 1.75 | erhöhten Expressionswerten | 1.65 | starken Expressionssteigerung |  |  |  |
| NCCS(=O)(=O)O [Taurin, 2-Aminoethansulfonsäure] |  |  | erhöhten Expressionswerten |  | leichten Steigerung der Expression | 1,6 | 2.05 | 1.1 |
